According to patent US20230406885A1, “CYCLIC PEPTIDES FOR TRAPPING INTERLEUKIN-1 BETA” (MERCK SHARP & DOHME LLC, priority 2022, published 2023):
*1 amine or outer side, *2 acyl side, *3 side chain or, on linkers, in order; H or OH if unused. Where a SMILES comes first, the peptide text is derived from it. [ ]: non-standard residue; d: D form. Phe(4-(4-Ac-piperazinyl)) = CC(=O)N1CCN(c2ccc(C[C@H](N)C(=O)O)cc2)CC1; Trp(4-Cl)(βS-Me) = C[C@@H](c1c[nH]c2cccc(Cl)c12)[C@H](N)C(=O)O; Trp(βS-Me,4-F) = C[C@@H](c1c[nH]c2cccc(F)c12)[C@H](N)C(=O)O; Bip(4'-COOH) = N[C@@H](Cc1ccc(-c2ccc(C(=O)O)cc2)cc1)C(=O)O; X3 = CC(=O)N1CCN(c2ncc(C[C@H](N[*:1])C(=O)[*:2])cn2)CC1; 1Nal(3S-Me) = C[C@@H](c1cccc2ccccc12)[C@H](N)C(=O)O; X11 = O=C([C@@H]1C[C@@H](NCc2ccccc2)CN1[*:1])[*:2]; X5 = O=C([C@@H]1C[C@@H](NCCc2ccccc2)CN1[*:1])[*:2]; Ala(indazol-1-yl) = N[C@@H](Cn1ncc2ccccc21)C(=O)O; Ala(indolin-1-yl) = N[C@@H](CN1CCc2ccccc21)C(=O)O; Phe(4-COOH) = N[C@@H](Cc1ccc(C(=O)O)cc1)C(=O)O; X4 = CCN[C@@H]1C[C@@H](C(=O)[*:2])N([*:1])C1; h3Pal(5-CN) = N#Cc1cncc(CC[C@H](N)C(=O)O)c1; Pro(4R-NH2) = N[C@H]1CN[C@H](C(=O)O)C1; 1Nal = N[C@@H](Cc1cccc2ccccc12)C(=O)O; AEF = NCCOc1ccc(C[C@H](N)C(=O)O)cc1; hTyr = N[C@@H](CCc1ccc(O)cc1)C(=O)O; dDab = NCC[C@@H](N)C(=O)O; dNMeA = CN[C@H](C)C(=O)O; Dab = NCC[C@H](N)C(=O)O; Nva = CCC[C@H](N)C(=O)O; Dap = NC[C@H](N)C(=O)O; Aib = CC(C)(N)C(=O)O

molecular target: T1, Recombinant human IL-1β (Homo sapiens, UniProt P01584); assay: IL-6 assay in MRC5 cells: inhibition of IL-1β induced IL-6 secretion (AlphaLISA); format: cell-based; conditions: inhibition of IL-1β induced IL-6 secretion in MRC5 cells; IL-1β pre-incubated 1 hour with compound; read-out: MRC5 IC50
T1 construct: purchased BioLegend 579404
T1 sequence (P01584 117-269): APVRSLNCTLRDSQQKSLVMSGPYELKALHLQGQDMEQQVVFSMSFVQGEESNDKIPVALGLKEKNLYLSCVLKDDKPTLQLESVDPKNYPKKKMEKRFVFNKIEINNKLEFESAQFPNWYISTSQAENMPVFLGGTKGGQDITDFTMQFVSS
Summary of the method: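 IL-1β at 2×EC80 in seeding medium (EMEM, 0.025% BSA) preincubated 1 h at ambient temperature with compound, then 3000 MRC5 cells/well added and incubated overnight at 37 °C, 5% CO2. IL-6 in conditioned medium quantified by AlphaLISA; IC50 from 4-parameter logistic fit.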

IC50 | SMILES
189 pM | CCC[C@@H]1NC(=O)[C@H](Cc2c[nH]c3ccccc23)NC(=O)[C@H](Cc2ccc(-c3ccc(C(=O)O)cc3)cc2)NC(=O)CNC(=O)[C@@H](C)N(C)C(=O)[C@H](CC(=O)O)NC(=O)[C@H]([C@@H](C)c2c[nH]c3cccc(F)c23)NC(=O)[C@@H]2C[C@@H](N)CN2C(=O)CNC(=O)[C@H](Cc2ccc(C(=O)O)cc2)NC(=O)[C@H](Cc2c[nH]c3ccccc23)NC(=O)[C@H](Cc2ccc(-c3ccc(C(=O)O)cc3)cc2)NC(=O)[C@H](C)NC(=O)[C@@H](C)NC1=O [Example 79] (cyclo([Bip(4'-COOH)]W[Phe(4-COOH)]G[Pro(4R-NH2)][Trp(βS-Me,4-F)]D[dNMeA]G[Bip(4'-COOH)]W[Nva][dA]A))
291 pM | CC(C)C[C@@H]1NC(=O)[C@H](CCCCN)NC(=O)[C@H](Cc2ccc(-c3ccc(C(=O)O)cc3)cc2)NC(=O)CNC(=O)[C@@H](C)N(C)C(=O)[C@H](CC(N)=O)NC(=O)[C@H]([C@@H](C)c2c[nH]c3cccc(F)c23)NC(=O)[C@@H]2C[C@@H](N)CN2C(=O)CNC(=O)[C@H](Cc2ccc(C(=O)O)cc2)NC(=O)[C@H](Cc2c[nH]c3ccccc23)NC(=O)[C@H](Cc2ccc(-c3ccc(C(=O)O)cc3)cc2)NC(=O)[C@H](CCc2ccc(O)cc2)NC(=O)[C@@H](C)NC1=O [Example 80] (cyclo([Bip(4'-COOH)]W[Phe(4-COOH)]G[Pro(4R-NH2)][Trp(βS-Me,4-F)]N[dNMeA]G[Bip(4'-COOH)]KL[dA][hTyr]))
255 pM | CC(C)C[C@@H]1NC(=O)[C@H](CCCCN)NC(=O)[C@H](Cc2ccc(-c3ccc(C(=O)O)cc3)cc2)NC(=O)CNC(=O)[C@@H](C)N(C)C(=O)[C@H](CC(N)=O)NC(=O)[C@H]([C@@H](C)c2c[nH]c3cccc(F)c23)NC(=O)[C@@H]2C[C@@H](N)CN2C(=O)CNC(=O)[C@H](Cc2ccc(C(=O)O)cc2)NC(=O)[C@H](Cc2c[nH]c3ccccc23)NC(=O)[C@H](Cc2ccc(-c3ccc(C(=O)O)cc3)cc2)NC(=O)[C@H](CCc2ccc(O)cc2)NC(=O)[C@@H](CCN)NC1=O [Example 81] (cyclo([Bip(4'-COOH)]W[Phe(4-COOH)]G[Pro(4R-NH2)][Trp(βS-Me,4-F)]N[dNMeA]G[Bip(4'-COOH)]KL[dDab][hTyr]))
15.7 pM | C[C@@H]1C(=O)NCC(=O)N[C@@H](Cc2ccc(-c3ccc(C(=O)O)cc3)cc2)C(=O)N[C@@H](Cc2c[nH]c3ccccc23)C(=O)N[C@@H](CN)C(=O)N[C@H](C)C(=O)N[C@@H](CCc2ccc(O)cc2)C(=O)N[C@@H](Cc2ccc(-c3ccc(C(=O)O)cc3)cc2)C(=O)N[C@@H](Cc2c[nH]c3ccccc23)C(=O)N[C@@H](Cc2ccc(C(=O)O)cc2)C(=O)NCC(=O)N2C[C@H](NCc3ccccc3)C[C@H]2C(=O)N[C@@H]([C@@H](C)c2cccc3ccccc23)C(=O)N[C@@H](CC(=O)O)C(=O)N1C [Example 82] (cyclo([Bip(4'-COOH)]W[Phe(4-COOH)]G[X11][1Nal(3S-Me)]D[dNMeA]G[Bip(4'-COOH)]W[Dap][dA][hTyr]))
32.9 pM | C[C@@H]1C(=O)NCC(=O)N[C@@H](Cc2ccc(-c3ccc(C(=O)O)cc3)cc2)C(=O)N[C@@H](Cc2c[nH]c3ccccc23)C(=O)N[C@@H](CN)C(=O)N[C@H](C)C(=O)N[C@@H](CCc2ccc(O)cc2)C(=O)N[C@@H](Cc2ccc(-c3ccc(C(=O)O)cc3)cc2)C(=O)N[C@@H](Cc2c[nH]c3ccccc23)C(=O)N[C@@H](Cc2ccc(C(=O)O)cc2)C(=O)NCC(=O)N2C[C@H](NCCc3ccccc3)C[C@H]2C(=O)N[C@@H]([C@@H](C)c2cccc3ccccc23)C(=O)N[C@@H](CC(=O)O)C(=O)N1C [Example 83] (cyclo([Bip(4'-COOH)]W[Phe(4-COOH)]G[X5][1Nal(3S-Me)]D[dNMeA]G[Bip(4'-COOH)]W[Dap][dA][hTyr]))
25.8 pM | CCN[C@@H]1C[C@H]2C(=O)N[C@@H]([C@@H](C)c3cccc4ccccc34)C(=O)N[C@@H](CC(=O)O)C(=O)N(C)[C@H](C)C(=O)NCC(=O)N[C@@H](Cc3ccc(-c4ccc(C(=O)O)cc4)cc3)C(=O)N[C@@H](Cc3c[nH]c4ccccc34)C(=O)N[C@@H](CN)C(=O)N[C@H](C)C(=O)N[C@@H](CCc3ccc(O)cc3)C(=O)N[C@@H](Cc3ccc(-c4ccc(C(=O)O)cc4)cc3)C(=O)N[C@@H](Cc3c[nH]c4ccccc34)C(=O)N[C@@H](Cc3ccc(C(=O)O)cc3)C(=O)NCC(=O)N2C1 [Example 84] (cyclo([Bip(4'-COOH)]W[Phe(4-COOH)]G[X4][1Nal(3S-Me)]D[dNMeA]G[Bip(4'-COOH)]W[Dap][dA][hTyr]))
54.3 pM | CC(=O)N1CCN(c2ccc(C[C@@H]3NC(=O)[C@H](CCc4ccc(O)cc4)NC(=O)[C@@H](CCN)NC(=O)CNC(=O)[C@H](Cc4c[nH]c5ccccc45)NC(=O)[C@H](Cc4ccc(-c5ccc(C(=O)O)cc5)cc4)NC(=O)CNC(=O)[C@@H](C)N(C)C(=O)[C@H](CC(=O)O)NC(=O)[C@H]([C@@H](C)c4c[nH]c5cccc(Cl)c45)NC(=O)[C@@H]4C[C@@H](N)CN4C(=O)CNC(=O)[C@H](Cc4ccc(C(=O)O)cc4)NC(=O)[C@H](Cc4c[nH]c5ccccc45)NC3=O)cc2)CC1 [Example 85] (cyclo([Phe(4-(4-Ac-piperazinyl))]W[Phe(4-COOH)]G[Pro(4R-NH2)][Trp(4-Cl)(βS-Me)]D[dNMeA]G[Bip(4'-COOH)]WG[dDab][hTyr]))
94.5 pM | CC(=O)N1CCN(c2ncc(C[C@@H]3NC(=O)[C@H](CCc4ccc(O)cc4)NC(=O)[C@@H](C)NC(=O)[C@H](CN)NC(=O)[C@H](Cc4c[nH]c5ccccc45)NC(=O)[C@H](Cc4ccc(-c5ccc(C(=O)O)cc5)cc4)NC(=O)CNC(=O)[C@@H](C)N(C)C(=O)[C@H](CC(=O)O)NC(=O)[C@H]([C@@H](C)c4cccc5ccccc45)NC(=O)[C@@H]4C[C@@H](N)CN4C(=O)CNC(=O)[C@H](Cc4ccc(C(=O)O)cc4)NC(=O)[C@H](Cc4c[nH]c5ccccc45)NC3=O)cn2)CC1 [Example 88] (cyclo([X3]W[Phe(4-COOH)]G[Pro(4R-NH2)][1Nal(3S-Me)]D[dNMeA]G[Bip(4'-COOH)]W[Dap][dA][hTyr]))
271 pM | CC(=O)NCCOc1ccc(C[C@@H]2NC(=O)[C@H](CCc3ccc(O)cc3)NC(=O)[C@@H](C)NC(=O)[C@H](CN)NC(=O)[C@H](Cc3c[nH]c4ccccc34)NC(=O)[C@H](Cc3ccc(-c4ccc(C(=O)O)cc4)cc3)NC(=O)CNC(=O)[C@@H](C)N(C)C(=O)[C@H](C)NC(=O)[C@H]([C@@H](C)c3cccc4ccccc34)NC(=O)[C@@H]3C[C@@H](N)CN3C(=O)CNC(=O)[C@H](Cc3ccc(C(=O)O)cc3)NC(=O)[C@H](Cc3c[nH]c4ccccc34)NC2=O)cc1 [Example 89] (cyclo([AEF](Ac)W[Phe(4-COOH)]G[Pro(4R-NH2)][1Nal(3S-Me)]A[dNMeA]G[Bip(4'-COOH)]W[Dap][dA][hTyr]))
50.7 pM | CC(=O)NCCOc1ccc(C[C@@H]2NC(=O)[C@H](CCc3cncc(C#N)c3)NC(=O)[C@@H](CCN)NC(=O)CNC(=O)[C@H](Cn3ncc4ccccc43)NC(=O)[C@H](Cc3ccc(-c4ccc(C(=O)O)cc4)cc3)NC(=O)CNC(=O)[C@@H](C)N(C)C(=O)[C@H](CC(=O)O)NC(=O)[C@H]([C@@H](C)c3cccc4ccccc34)NC(=O)[C@@H]3C[C@@H](N)CN3C(=O)CNC(=O)[C@H](Cc3ccc(C(=O)O)cc3)NC(=O)[C@H](Cc3c[nH]c4ccccc34)NC2=O)cc1 [Example 90] (cyclo([AEF](Ac)W[Phe(4-COOH)]G[Pro(4R-NH2)][1Nal(3S-Me)]D[dNMeA]G[Bip(4'-COOH)][Ala(indazol-1-yl)]G[dDab][h3Pal(5-CN)]))
23.4 pM | CC(=O)NCCOc1ccc(C[C@@H]2NC(=O)[C@H](CCc3cncc(C#N)c3)NC(=O)[C@@H](CCN)NC(=O)CNC(=O)[C@H](CN3CCc4ccccc43)NC(=O)[C@H](Cc3ccc(-c4ccc(C(=O)O)cc4)cc3)NC(=O)CNC(=O)[C@@H](C)N(C)C(=O)[C@H](CC(=O)O)NC(=O)[C@H]([C@@H](C)c3cccc4ccccc34)NC(=O)[C@@H]3C[C@@H](N)CN3C(=O)CNC(=O)[C@H](Cc3ccc(C(=O)O)cc3)NC(=O)[C@H](Cc3c[nH]c4ccccc34)NC2=O)cc1 [Example 91] (cyclo([AEF](Ac)W[Phe(4-COOH)]G[Pro(4R-NH2)][1Nal(3S-Me)]D[dNMeA]G[Bip(4'-COOH)][Ala(indolin-1-yl)]G[dDab][h3Pal(5-CN)]))
457 pM | CC(=O)NCCOc1ccc(C[C@@H]2NC(=O)CNC(=O)C(C)(C)NC(=O)[C@H](CCN)NC(=O)[C@H](Cc3cccc4ccccc34)NC(=O)[C@H](Cc3ccc(-c4ccc(C(=O)O)cc4)cc3)NC(=O)CNC(=O)[C@@H](C)N(C)C(=O)[C@H](CC(=O)O)NC(=O)[C@H]([C@@H](C)c3cccc4ccccc34)NC(=O)[C@@H]3C[C@@H](N)CN3C(=O)CNC(=O)[C@H](Cc3ccc(C(=O)O)cc3)NC(=O)[C@H](Cc3c[nH]c4ccccc34)NC2=O)cc1 [Example 92] (cyclo([AEF](Ac)W[Phe(4-COOH)]G[Pro(4R-NH2)][1Nal(3S-Me)]D[dNMeA]G[Bip(4'-COOH)][1Nal][Dab][Aib]G))
120 pM | CC(=O)NCCOc1ccc(C[C@@H]2NC(=O)[C@H](CCc3ccc(O)cc3)NC(=O)C(C)(C)NC(=O)[C@H](CCN)NC(=O)[C@H](Cc3cccc4ccccc34)NC(=O)[C@H](Cc3ccc(-c4ccc(C(=O)O)cc4)cc3)NC(=O)CNC(=O)[C@@H](C)N(C)C(=O)[C@H](CC(=O)O)NC(=O)[C@H]([C@@H](C)c3cccc4ccccc34)NC(=O)[C@@H]3C[C@@H](N)CN3C(=O)CNC(=O)[C@H](Cc3ccc(C(=O)O)cc3)NC(=O)[C@H](Cc3c[nH]c4ccccc34)NC2=O)cc1 [Example 93] (cyclo([AEF](Ac)W[Phe(4-COOH)]G[Pro(4R-NH2)][1Nal(3S-Me)]D[dNMeA]G[Bip(4'-COOH)][1Nal][Dab][Aib][hTyr]))
63.9 pM | CC(=O)NCCOc1ccc(C[C@@H]2NC(=O)[C@H](CCc3cncc(C#N)c3)NC(=O)C(C)(C)NC(=O)[C@H](CN)NC(=O)[C@H](Cc3cccc4ccccc34)NC(=O)[C@H](Cc3ccc(-c4ccc(C(=O)O)cc4)cc3)NC(=O)CNC(=O)[C@@H](C)N(C)C(=O)[C@H](CC(=O)O)NC(=O)[C@H]([C@@H](C)c3cccc4ccccc34)NC(=O)[C@@H]3C[C@@H](N)CN3C(=O)CNC(=O)[C@H](Cc3ccc(C(=O)O)cc3)NC(=O)[C@H](Cc3c[nH]c4ccccc34)NC2=O)cc1 [Example 94] (cyclo([AEF](Ac)W[Phe(4-COOH)]G[Pro(4R-NH2)][1Nal(3S-Me)]D[dNMeA]G[Bip(4'-COOH)][1Nal][Dap][Aib][h3Pal(5-CN)]))
